Patent US20090104240A1, “Dual Drug Formulations For Implantable Medical Devices For Treatment of Vascular Diseases” (Abbott Cardiovascular Systems Inc., priority 2007, published 2009)

What was measured:
[1] = test system: inflammation; assay: effect of corticosteroid on inflammation; format: in vivo; details: super high potency corticosteroid
[2] = test system: vessel endothelialization; assay: effect of corticosteroid on vessel endothelialization; format: in vivo; details: super high potency corticosteroid

`CC1CC2C3CCC4=CC(=O)C=CC4(C)C3(F)C(=O)CC2(C)C1(O)C(=O)CCl` (centres unmarked) [clobetasone] was tested, and the “effect with regard to inflammation” value [1] was “beneficial effect with regard to inflammation” and the vessel endothelialization [2] was “impairment of vessel endothelialization was observed”.
